Patent US9750747B2, “Treatments involving eslicarbazepine acetate or eslicarbazepine” (BAIL-PORTELA & CA, S.A., priority 2011, dated 2017)
Where two headings read alike, the source gives them in different places.

Key:
Type in all cases: cell-based
[1] = molecular target: T1, human T-type calcium channels hCav3.2 (Homo sapiens, UniProt O95180); test: whole-cell patch-clamp, calcium peak currents in stably transfected HEK 293 cells; set-up: blocked calcium peak currents by: unit not given here; settings: for Relative current amplitude (%): hCav3.2 in HEK 293 cells; for IC50: two site binding model
T1 construct: expressed in transfected cells; host or cells: HEK 293 cells (European Collection of Animal Cell Culture)
T1 sequence (O95180 whole entry): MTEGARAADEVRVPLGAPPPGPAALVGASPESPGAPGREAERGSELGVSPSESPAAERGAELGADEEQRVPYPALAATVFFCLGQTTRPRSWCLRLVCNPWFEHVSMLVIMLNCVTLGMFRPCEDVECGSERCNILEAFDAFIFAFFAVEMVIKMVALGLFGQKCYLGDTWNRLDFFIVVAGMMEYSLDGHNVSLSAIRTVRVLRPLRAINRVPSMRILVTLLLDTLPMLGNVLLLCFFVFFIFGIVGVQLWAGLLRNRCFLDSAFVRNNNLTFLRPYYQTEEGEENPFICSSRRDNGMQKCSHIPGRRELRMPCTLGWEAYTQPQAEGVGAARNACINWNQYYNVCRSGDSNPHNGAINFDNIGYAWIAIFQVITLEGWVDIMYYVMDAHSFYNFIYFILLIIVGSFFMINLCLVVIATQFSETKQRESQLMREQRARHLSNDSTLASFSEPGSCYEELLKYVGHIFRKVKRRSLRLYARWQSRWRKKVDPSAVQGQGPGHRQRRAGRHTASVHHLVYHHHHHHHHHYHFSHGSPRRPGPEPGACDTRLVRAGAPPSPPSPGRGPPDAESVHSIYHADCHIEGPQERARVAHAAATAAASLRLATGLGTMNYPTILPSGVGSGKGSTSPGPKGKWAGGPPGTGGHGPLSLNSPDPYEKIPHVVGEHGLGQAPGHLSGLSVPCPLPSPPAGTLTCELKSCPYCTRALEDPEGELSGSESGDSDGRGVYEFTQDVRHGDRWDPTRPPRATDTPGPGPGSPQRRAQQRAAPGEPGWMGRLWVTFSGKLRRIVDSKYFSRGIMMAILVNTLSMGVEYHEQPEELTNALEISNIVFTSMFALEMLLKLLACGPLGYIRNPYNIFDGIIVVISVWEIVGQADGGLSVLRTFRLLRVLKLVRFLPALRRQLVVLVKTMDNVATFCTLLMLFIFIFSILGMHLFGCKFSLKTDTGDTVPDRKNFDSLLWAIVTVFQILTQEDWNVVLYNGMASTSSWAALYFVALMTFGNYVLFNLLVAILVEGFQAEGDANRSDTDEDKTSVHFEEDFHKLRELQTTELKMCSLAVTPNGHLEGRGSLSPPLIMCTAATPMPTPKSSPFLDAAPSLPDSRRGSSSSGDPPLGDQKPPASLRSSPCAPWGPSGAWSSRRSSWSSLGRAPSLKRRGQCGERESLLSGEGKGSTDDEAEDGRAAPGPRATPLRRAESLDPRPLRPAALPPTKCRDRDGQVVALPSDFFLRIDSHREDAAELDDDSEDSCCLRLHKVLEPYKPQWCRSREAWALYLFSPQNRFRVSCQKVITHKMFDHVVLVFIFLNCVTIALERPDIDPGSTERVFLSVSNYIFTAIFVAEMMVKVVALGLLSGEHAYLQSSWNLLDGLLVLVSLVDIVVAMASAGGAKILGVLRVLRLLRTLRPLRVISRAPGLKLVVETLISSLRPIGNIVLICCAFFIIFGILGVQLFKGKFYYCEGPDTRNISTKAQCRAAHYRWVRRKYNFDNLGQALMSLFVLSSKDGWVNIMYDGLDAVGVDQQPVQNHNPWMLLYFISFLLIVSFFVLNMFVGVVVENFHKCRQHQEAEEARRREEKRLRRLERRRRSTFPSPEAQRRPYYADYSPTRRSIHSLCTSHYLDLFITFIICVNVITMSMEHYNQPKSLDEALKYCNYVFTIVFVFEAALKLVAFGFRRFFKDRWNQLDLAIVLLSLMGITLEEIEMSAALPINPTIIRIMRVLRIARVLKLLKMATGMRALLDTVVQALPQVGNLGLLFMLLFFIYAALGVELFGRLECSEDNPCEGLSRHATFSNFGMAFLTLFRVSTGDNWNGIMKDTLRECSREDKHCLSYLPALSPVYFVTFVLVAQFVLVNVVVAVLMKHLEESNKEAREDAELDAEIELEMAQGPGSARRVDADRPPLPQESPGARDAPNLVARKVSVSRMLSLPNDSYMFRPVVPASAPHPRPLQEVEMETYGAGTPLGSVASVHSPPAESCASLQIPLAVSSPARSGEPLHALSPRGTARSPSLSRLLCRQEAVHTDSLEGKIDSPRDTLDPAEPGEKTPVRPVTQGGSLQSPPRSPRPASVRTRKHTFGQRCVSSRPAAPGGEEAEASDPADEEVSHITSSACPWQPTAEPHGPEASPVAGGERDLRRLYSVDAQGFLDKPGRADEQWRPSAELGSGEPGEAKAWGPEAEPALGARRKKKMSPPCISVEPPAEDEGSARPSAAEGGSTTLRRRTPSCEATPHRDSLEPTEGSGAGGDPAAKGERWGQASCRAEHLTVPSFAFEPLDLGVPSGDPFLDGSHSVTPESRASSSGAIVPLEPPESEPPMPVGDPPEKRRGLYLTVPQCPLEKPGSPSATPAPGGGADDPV
Method: A study was carried out to determine the effect of eslicarbazepine.
Cells were stably transfected with hCav3.2 cDNA.
Calcium inward currents were measured upon depolarization of the cell membrane to −25 mV for 50 ms from a holding potential of −80 mV. This voltage protocol was run at intervals of 10 s until stabilization of evoked hCav3.2 currents. […] Vehicle was either bath solution or 0.2% DMSO.
Analysis of variance (ANOVA) with post test multisample comparison (Dunnett) was conducted with GraphPad Prism 4 Software. IC50 were calculated with the equation: […]

α1β2γ2 GABA receptors = molecular target: T2, α1β2γ2 GABA receptors (Homo sapiens, UniProt P14867+P18507+P47870); test: whole-cell patch-clamp, sub-maximal GABA inward currents in stably transfected Ltk cells
T2 construct: host or cells: Ltk cells, expression induced with dexamethasone
T2 sequence (P14867 28-456): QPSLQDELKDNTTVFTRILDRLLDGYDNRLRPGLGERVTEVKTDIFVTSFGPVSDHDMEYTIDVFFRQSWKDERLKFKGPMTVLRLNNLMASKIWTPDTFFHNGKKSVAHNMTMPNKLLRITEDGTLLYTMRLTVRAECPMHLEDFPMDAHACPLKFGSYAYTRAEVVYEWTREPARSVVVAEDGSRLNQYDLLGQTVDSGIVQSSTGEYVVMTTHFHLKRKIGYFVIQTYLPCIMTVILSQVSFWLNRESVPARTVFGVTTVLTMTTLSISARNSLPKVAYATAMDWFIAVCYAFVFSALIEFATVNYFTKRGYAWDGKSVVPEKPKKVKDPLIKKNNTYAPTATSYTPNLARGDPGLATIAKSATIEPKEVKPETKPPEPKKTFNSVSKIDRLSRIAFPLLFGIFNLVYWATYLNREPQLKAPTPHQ
T2 sequence (P47870 25-512 limits assumed): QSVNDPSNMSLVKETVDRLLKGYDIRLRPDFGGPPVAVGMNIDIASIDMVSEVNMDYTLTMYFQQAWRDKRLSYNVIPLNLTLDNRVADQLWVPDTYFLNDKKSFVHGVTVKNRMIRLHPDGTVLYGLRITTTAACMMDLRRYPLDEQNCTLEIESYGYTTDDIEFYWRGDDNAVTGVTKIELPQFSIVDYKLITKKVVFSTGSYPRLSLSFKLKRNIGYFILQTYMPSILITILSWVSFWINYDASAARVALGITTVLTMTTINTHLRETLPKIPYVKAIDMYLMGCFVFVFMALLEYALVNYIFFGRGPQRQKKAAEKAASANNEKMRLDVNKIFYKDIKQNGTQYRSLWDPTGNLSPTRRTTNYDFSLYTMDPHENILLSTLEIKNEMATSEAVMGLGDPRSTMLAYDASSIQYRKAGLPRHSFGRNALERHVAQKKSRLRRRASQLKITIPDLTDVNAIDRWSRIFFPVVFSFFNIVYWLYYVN
T2 sequence (P18507 40-475): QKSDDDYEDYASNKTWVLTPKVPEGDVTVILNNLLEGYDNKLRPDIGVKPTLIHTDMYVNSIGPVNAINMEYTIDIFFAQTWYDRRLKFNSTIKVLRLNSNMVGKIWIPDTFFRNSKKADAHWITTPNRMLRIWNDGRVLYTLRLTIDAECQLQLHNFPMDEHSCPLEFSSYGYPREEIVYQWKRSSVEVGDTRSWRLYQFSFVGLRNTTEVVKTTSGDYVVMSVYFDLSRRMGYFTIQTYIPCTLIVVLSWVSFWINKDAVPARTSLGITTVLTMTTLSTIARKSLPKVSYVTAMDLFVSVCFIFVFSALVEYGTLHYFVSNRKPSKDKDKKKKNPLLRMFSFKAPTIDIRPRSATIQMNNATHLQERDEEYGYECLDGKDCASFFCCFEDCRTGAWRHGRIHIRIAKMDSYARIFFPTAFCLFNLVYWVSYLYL
Method: (§1) Carbamazepine (CBZ) aggravates absence seizures in ‘generalized absence epilepsy rats from. Strasbourg’. One putative mechanism for the aggravation is through its reported potentiation of GABAA currents. A study was carried out to determine the effect of eslicarbazepine, R-licarbazepine and carbamazepine on sub-maximal GABA currents in Ltk cells stably expressing α1β2γ2, α2β2γ2, α3β2γ2 or α5β2γ2 GABA-receptors. The whole-cell patch-clamp technique was used to investigate the effects of the test compounds on GABAA receptors.
(§2) Used Ltk cells were stably transfected with recombinant GABAA cDNAs: α1β2γ2, α2β2γ2, α3β2γ2 or α5β2γ2 (B'SYS GmbH, Switzerland). […] For the electrophysiological experiments cells were cultivated, at a density that enabled single cells to be measured, in medium without antibiotics or antimycotics. Cells were tested 24-48 hours following induction of transgene expression with dexamethasone.
(§3) The whole-cell patch clamp recordings from transfected Ltk cells (voltage-clamped at a holding potential of −80 mV) were made using a EPC-7, HEKA Electronics amplifier. GABA inward-currents were measured upon application of 1 or 2 μM GABA to patch-clamped cells (at an EC5).
(§4) Analysis of Variance (ANOVA) with post test multisample comparison (Dunnett) was conducted with GraphPad Prism 4 Software.

α2β2γ2 GABA receptors = molecular target: T3, α2β2γ2 GABA receptors (Homo sapiens, UniProt P18507+P47869+P47870); test: as above; settings: Table 2
T3 construct: host or cells: Ltk cells, expression induced with dexamethasone
T3 sequence (P47869 29-451): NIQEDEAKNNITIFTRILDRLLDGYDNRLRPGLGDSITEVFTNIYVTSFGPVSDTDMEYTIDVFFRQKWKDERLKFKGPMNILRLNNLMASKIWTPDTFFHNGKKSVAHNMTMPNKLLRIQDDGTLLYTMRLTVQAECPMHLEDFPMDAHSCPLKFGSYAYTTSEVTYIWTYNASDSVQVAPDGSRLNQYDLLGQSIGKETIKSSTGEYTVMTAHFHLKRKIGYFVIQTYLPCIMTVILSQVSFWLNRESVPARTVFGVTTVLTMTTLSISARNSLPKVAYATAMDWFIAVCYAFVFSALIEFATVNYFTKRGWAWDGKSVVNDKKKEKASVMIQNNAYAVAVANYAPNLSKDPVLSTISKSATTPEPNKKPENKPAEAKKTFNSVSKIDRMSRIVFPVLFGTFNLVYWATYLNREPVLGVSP
T3 sequence (P47870 25-512 limits assumed): as the sequence (P47870 25-512 limits assumed) above
T3 sequence (P18507 40-475): as the sequence (P18507 40-475) above
Method: as §1, §2, §3, §4

α3β2γ2 GABA receptors = molecular target: T4, α3β2γ2 GABA receptors (Homo sapiens, UniProt P18507+P34903+P47870); test: as above; settings: Table 2
T4 construct: host or cells: Ltk cells, expression induced with dexamethasone
T4 sequence (P34903 29-492): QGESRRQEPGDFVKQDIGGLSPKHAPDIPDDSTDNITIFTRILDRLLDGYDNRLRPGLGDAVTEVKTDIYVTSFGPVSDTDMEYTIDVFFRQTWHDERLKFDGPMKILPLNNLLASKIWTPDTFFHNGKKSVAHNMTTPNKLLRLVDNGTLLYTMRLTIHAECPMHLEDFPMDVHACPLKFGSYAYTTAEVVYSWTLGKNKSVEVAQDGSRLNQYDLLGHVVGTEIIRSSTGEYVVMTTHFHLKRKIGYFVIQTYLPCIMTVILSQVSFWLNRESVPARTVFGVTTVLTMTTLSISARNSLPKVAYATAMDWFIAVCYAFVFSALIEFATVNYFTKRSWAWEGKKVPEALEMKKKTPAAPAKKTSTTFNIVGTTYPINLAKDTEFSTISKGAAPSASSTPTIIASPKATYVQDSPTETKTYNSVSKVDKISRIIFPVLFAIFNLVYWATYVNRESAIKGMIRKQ
T4 sequence (P47870 25-512 limits assumed): as the sequence (P47870 25-512 limits assumed) above
T4 sequence (P18507 40-475): as the sequence (P18507 40-475) above
Method: as §1, §2, §3, §4

α5β2γ2 GABA receptors = molecular target: T5, α5β2γ2 GABA receptors (Homo sapiens, UniProt P18507+P31644+P47870); test: as above; settings: Table 2
T5 construct: host or cells: Ltk cells, expression induced with dexamethasone
Method: as §1, §2, §3, §4

[2] = 50 μM with GABA at EC5, Ltk cells
[3] = 100 μM with GABA at EC5, Ltk cells
[4] = 250 μM with GABA at EC5, Ltk cells
[5] = 500 μM with GABA at EC5, Ltk cells
[6] = 1000 μM with GABA at EC5, Ltk cells

Question: Which “effect on hCav3.2 calcium peak currents (in words)” value [1] does the source give for `COCC(=O)O[C@]1(CCN(C)CCCc2nc3ccccc3[nH]2)CCc2cc(F)ccc2[C@@H]1C(C)C` [Mibefradil] here?
Answer: Its value is “dose dependently inhibited”.

Question: With `Cc1ncc2n1-c1ccc(Cl)cc1C(c1ccccc1F)=NC2` [Midazolam] as the compound, how does the “Current stimulation (%) α1β2γ2” value (α1β2γ2 GABA receptors; 3 μM with GABA at EC5, Ltk cells, Table 1) read?
Answer: The value was 184.81 ± 32.93 %.

Question: What does the source list for `NC(=O)N1c2ccccc2C=Cc2ccccc21` [Carbamazepine, 5H-dibenzo[b,f]azepine-5-carboxamide]?
Answer: Current stimulation (%) α1β2γ2 (α1β2γ2 GABA receptors; 50 μM with GABA at EC5, Ltk cells, Table 2): 104.30 ± 5.02%; Current stimulation (%) α1β2γ2 (α1β2γ2 GABA receptors; 100 μM with GABA at EC5, Ltk cells, Table 2): 117.38 ± 4.94%; Current stimulation (%) α1β2γ2 (α1β2γ2 GABA receptors; 250 μM with GABA at EC5, Ltk cells, Table 2): 115.68 ± 5.31%; Current stimulation (%) α1β2γ2 (α1β2γ2 GABA receptors; 500 μM with GABA at EC5, Ltk cells, Table 2): 132.42 ± 5.31 %; Current stimulation (%) α1β2γ2 (α1β2γ2 GABA receptors; 1000 μM with GABA at EC5, Ltk cells, Table 2): 150.26 ± 15.48 %; Current stimulation (%) α2β2γ2 (α2β2γ2 GABA receptors; [2]): 97.94 ± 3.34%; Current stimulation (%) α2β2γ2 (α2β2γ2 GABA receptors; [3]): 111.36 ± 2.65%; Current stimulation (%) α2β2γ2 (α2β2γ2 GABA receptors; [4]): 109.03 ± 7.61%; Current stimulation (%) α2β2γ2 (α2β2γ2 GABA receptors; [5]): 103.60 ± 7.61%; Current stimulation (%) α2β2γ2 (α2β2γ2 GABA receptors; [6]): 104.18 ± 2.66%; Current stimulation (%) α3β2γ2 (α3β2γ2 GABA receptors; [2]): 93.32 ± 4.07%; Current stimulation (%) α3β2γ2 (α3β2γ2 GABA receptors; [3]): 112.76 ± 5.40%; Current stimulation (%) α3β2γ2 (α3β2γ2 GABA receptors; [4]): 131.06 ± 9.39%; Current stimulation (%) α3β2γ2 (α3β2γ2 GABA receptors; [5]): 120.27 ± 11.81%; Current stimulation (%) α3β2γ2 (α3β2γ2 GABA receptors; [6]): 166.66 ± 21.00 %; Current stimulation (%) α5β2γ2 (α5β2γ2 GABA receptors; [2]): 103.82 ± 1.50%; Current stimulation (%) α5β2γ2 (α5β2γ2 GABA receptors; [3]): 103.83 ± 4.53%; Current stimulation (%) α5β2γ2 (α5β2γ2 GABA receptors; [4]): 93.59 ± 4.30%; Current stimulation (%) α5β2γ2 (α5β2γ2 GABA receptors; [5]): 80.65 ± 5.86%; Current stimulation (%) α5β2γ2 (α5β2γ2 GABA receptors; [6]): 63.01 ± 4.50 %; effect on hCav3.2 calcium peak currents (in words) [1]: dose dependently inhibited; Relative current amplitude (%) ([1]; 25 μM): 87.58 ± 2.94%; Relative current amplitude (%) ([1]; 50 μM): 76.53 ± 5.48%; Relative current amplitude (%) ([1]; 100 μM): 69.98 ± 4.47%; Relative current amplitude (%) ([1]; 250 μM): 59.47 ± 6.06 %; Relative current amplitude (%) ([1]; 500 μM): 45.66 ± 7.45 %; IC50 ([1]; high affinity fit, read-out: hCav3.2 IC50 (μM) High affinity): 27.1 µM; IC50 ([1]; low affinity fit, read-out: hCav3.2 IC50 (μM) Low affinity): 711 µM

Question: How did the “effect on hCav3.2 currents (in words)” value ([1]; up to 30 μM) turn out when `NC(=O)N1c2ccccc2CC(=O)c2ccccc21` [Oxcarbazepine, 10,11-dihydro-10-oxo-5H-dibenz[b,f]azepine-5-carboxamide] was run?
Answer: Its value is “devoid of effect”.

Question: `CCCC(CCC)C(=O)O` [valproic acid] was tested. Which “blocked calcium peak currents by” value ([1]; 1 mM, n=8 cells) did it give?
Answer: The value was 66.15±2.05.
